Like-named read-outs stand apart in the source and are kept apart here.
Assays:
Assay type in all cases: cell-based
[1] = tested on: RAR-ERcassettes (RARα, RARβ, RARγ); assay: Chimerical receptors RAR-ERcassettes, overall profile
Source text: The HeLa cells are co-transfected by a plasmid which codes for a retinoic receptor in which the C domain of bonding to the DNA is substituted by that of the receptor to RE oestrogens, and a plasmid which places the expression of the luciferase under the control of an ERE (Element of Response to Oestrogens). The expressed chimerical receptors are designated as RARα-ERcassette, RARβ-ERcassette, RARγ-ERcassette and RXRα-ERcassette. The A, B, D, E and F regions of the natural receptor are preserved as well as the transcriptional co-operation between the activation domains AF-1 and AF-2. These transitory transfection experiments follow the method of co-precipitation to calcium phosphate. The HeLa cells are co-transfected by […] of plasmid coding for the chimerical receptor, […] of reporter plasmid and […] of expression vector CMV-β-galactosidase used as an internal control of transfection. 24 hours after the transfection, the cells are incubated for 16 hours with the different effectors.
In this type of chimerical receptor, the C domain of bonding to the DNA of RAR is substituted by that of the receptor to the RE oestrogens. The protein obtained is close to the natural RAR receptor and preserves the transcriptional properties of the AF-1 and AF-2 domains. It modulates the transcription by means of an ERE. This RAR-ERcassette model allows one to observe a transcriptional response to a more physiological ligand.

[2] = tested on: ZR-75-1 human mammary cancer cells; assay: MTT test, proliferation of ZR-75-1; settings: for activity at 100 µM / activity at 1 µM / activity at 0.01 µM: Homo sapiens, read-out: level of proliferation; for effect on cellular increase, ZR-75-1 (in words): MTT test
Summary of the method: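 Cells grown at 37° C in MEM/5% FCS were plated for 24 h, then treated at 10^-8, 10^-6 or 10^-4 M. Each condition was run in 6 duplicates.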

[3] = tested on: A549 human pulmonary cancer cells; assay: MTT test, proliferation of A549; settings: for activity at 0.01 µM / activity at 1 µM / activity at 100 µM: Homo sapiens, read-out: level of proliferation; for effect on cellular increase, A549 (in words): MTT test
Gal4-RARβ = assay: Transactivation, chimerical receptor Gal4-RARβ (transitory transfection of HeLa); settings: 100% = TTNPB 10^-8 M
[4] = tested on: RARE, endogenic RAR and RXR receptors, HRL+N lineage; assay: HRL+N transactivation (RARE-luciferase, stably transfected HeLa); set-up: Emax: dose or concentration left out as unconfirmed; settings: for Emax: Homo sapiens, HeLa
Experimental: MCF-7 cells and HeLa are cultivated in DMFM with phenol red to which 5% foetal calf serum is added. The T47-D cells are cultivated in RPMI to which 10% foetal calf serum is added. The experimental tests are carried out in DMEM without phenol red to which foetal calf serum treated with dextran carbon is added at 3%. […] The experiments using the different retinoids are carried out sheltered from the light so as to avoid any isomerisation.
Certain properties of the retinoids have been determined using more developed cellular models. These models consist of cellular lineages transfected in a stable fashion by recombinant plasmids which place the expression of the gene of the luciferase under the control of different nuclear response elements. […] The tests carried out in duplicate are described below for each of these models.
The cellular lineages HRLN and HRL+N allow one to study the activation of an RARE by endogenic receptors using ligands at physiological concentrations. These lineages derive from HeLa cells transfected in a stable fashion by a reporter gene which places the expression of the gene of the luciferase under the control of a nuclear response element RARE (RARE3 -tk-Luc). The HeLa cells express all the known receptors of the retinoic acid (RARα,β,γ and RXRα,β,γ) with a predominance of RARα and RXRα. The response element RARE used for the HRLN cells corresponds to the sequence of the natural gene of the RARβ receptor (GGTTCAnnnnnAGTTCA). The HRL+N cells comprise the sequence GAGTGAnnnnnCGGTGA.
The HRL+N lineage allows one to visualise a co-activation of the RAR and RXR receptors at the level of the RAR-RXR hetero-dimer.

RAR and RXR receptors = assay: RAR/RXR activity profile drawn from the models
Source text: The reference molecules have allowed one to show the effectiveness and the complementary nature of the different models used and lead to the following conclusions: chimerical constructions GAL-RAR and RAR-ERcassette allow the determination of the RAR agonist profile of molecules, but also an RXR agonist activity with RAR-ERcassette, the HRLN lineage mainly conveys the activity of a compound mediated by endogenic RARα, the HRL+N lineage also provides evidence of an RXR agonist activity of the retinoids, the anti-oestrogenic effect of the retinoids (oestrogen-induced cellular proliferation and MELN lineage) is mediated by RARα, the anti-AP-1 effect is mediated in the MCF-7 cells (MTLN lineage) by RARα, RARγ and RXRα, and an additive effect exists between the RAR and RXR routes.

Gal4-RARγ = assay: Transactivation, chimerical receptor Gal4-RARγ (transitory transfection of HeLa); settings: 100% = TTNPB 10^-8 M
[5] = ZR-75-1, 10^-4 M, 72 h, control = 100%
[6] = ZR-75-1, 10^-6 M, 72 h, control = 100%
[7] = ZR-75-1, 10^-8 M, 72 h, control = 100%
[8] = read-out: HRL+N transactivation, E max (Table 27)
[9] = A549, 10^-4 M, 72 h, control = 100%
[10] = A549, 10^-6 M, 72 h, control = 100%
[11] = A549, 10^-8 M, 72 h, control = 100%

CC(C=C/C=C(C)\C=C\C1=C(C)CCCC1(C)C)=CC(=O)O [CB13407, 9-cis retinoic acid, reference compound]
RAR-ERcassette profile (in words) [1]: induce an over-expression of luciferase in comparison to the induction brought about by a synthetic compound (TTNPB)
activity at 100 µM [2, 5]: 39.2%
activity at 1 µM [2, 6]: 130%
activity at 0.01 µM [2, 7]: 137%
effect on cellular increase, ZR-75-1 (in words) [2]: stimulates the cellular increase at 10^-6 M and 10^-8 M
activity at 0.01 µM ([3]; A549, 72 h): 104%
activity at 1 µM ([3]; A549, 72 h): 102%
activity at 100 µM ([3]; A549, 72 h): 38%

CC1=C(/C=C/C(C)=C/C=C/C(C)=C/C(=O)O)C(C)(C)CCC1 [CB16178, all-trans retinoic acid, reference compound]
GAL4-RAR RARβ transactivation (Gal4-RARβ; 10^-6 M): 92%
GAL4-RAR RARβ transactivation (Gal4-RARβ; 10^-7 M): 93%
GAL4-RAR RARβ transactivation (Gal4-RARβ; 10^-8 M): 104%
Emax ([4]; read-out: HRL+N transactivation, Emax): 225%
RAR-ERcassette profile (in words) [1]: induce an over-expression of luciferase in comparison to the induction brought about by a synthetic compound (TTNPB)
activity at 100 µM [2, 5]: 7.3%
activity at 1 µM [2, 6]: 57.2%
activity at 0.01 µM [2, 7]: 46.9%
effect on cellular increase, ZR-75-1 (in words) [2]: inhibit the cellular increase of the two mammary lineages at the concentrations tested
activity at 0.01 µM ([3]; A549, 72 h): 78.8%
activity at 1 µM ([3]; A549, 72 h): 89.2%
activity at 100 µM ([3]; A549, 72 h): 22.3%
effect on cellular increase, A549 (in words) [3]: inhibit the proliferation of the A549 lineage at 10^-6 M and 10^-8 M

C/C(=C/c1ccc2c(c1)C(C)(C)CCC2(C)C)c1ccc(C(=O)O)nc1 [CB16279, (Z) 5-[1-(5,6,7,8-tetrahydro-5,5,8,8-tetramethyl-2-naphthalenyl)-2-propenyl]pyridinyl-2-carboxylic acid]
GAL4-RAR RARβ transactivation (Gal4-RARβ; 10^-6 M): 47%
HRL+N transactivation (in words) [4]: bring about a transactivation greater than RAR selective agonists (TTNPB)
RAR-ERcassette profile (in words) [1]: induce a transactivation mediated by the three receptors
RAR/RXR activity profile (in words) (RAR and RXR receptors): panagonistic
GAL4-RAR RARγ transactivation (Gal4-RARγ; 10^-6 M): 59%

C/C(=C/c1ccc2c(c1)C(C)(C)CCC2(C)C)c1ccc(C(=O)O)cc1 [CB28628, reference compound]
GAL4-RAR RARβ transactivation (Gal4-RARβ; 10^-7 M): 102%
HRL+N transactivation (in words) [4]: induces a transactivation maximum greater than that of TTNPB
Emax [4, 8]: 158%
RAR-ERcassette profile (in words) [1]: complete agonist for RARγ-ERcassetteand induce an over-activation of RARα-ERcassette and RARβ-ERcassette at 1 μM
activity at 100 µM [2, 5]: 19.4%
activity at 1 µM [2, 6]: 83.5%
activity at 0.01 µM [2, 7]: 80.8%
GAL4-RAR RARγ transactivation (Gal4-RARγ; 10^-7 M): 106%
activity at 100 µM [3, 9]: 12.4%
activity at 1 µM [3, 10]: 93.4%
activity at 0.01 µM [3, 11]: 109%

CC1(C)CCC(C)(C)c2cc(/C=C(\c3ccc(C(=O)O)cc3)C(F)(F)F)ccc21 [CB36493, (E) 4-[1-trifluoromethyl-2-(5,6,7,8-tetrahydro-5,5,8,8-tetramethyl-2-naphthalenyl)-1-ethenyl]benzoic acid]
GAL4-RAR RARβ transactivation (Gal4-RARβ; 10^-6 M): 44%
RAR-ERcassette profile (in words) [1]: induce a transactivation mediated by the three receptors
RAR/RXR activity profile (in words) (RAR and RXR receptors): panagonistic
activity at 100 µM [2, 5]: 8.6%
activity at 1 µM [2, 6]: 108%
activity at 0.01 µM [2, 7]: 108%
GAL4-RAR RARγ transactivation (Gal4-RARγ; 10^-6 M): 50%
activity at 100 µM [3, 9]: 10.4%
activity at 1 µM [3, 10]: 93.7%
activity at 0.01 µM [3, 11]: 98.5%

C/C(=C/c1ccc2c(c1)C(C)(C)CCC2(C)C)c1ccc(C(=O)O)cn1 [CB38416, (Z) 2-[1-(5,6,7,8-tetrahydro-5,5,8,8-tetramethyl-2-naphthalenyl)-2-propenyl]pyridinyl-5-carboxylic acid]
GAL4-RAR RARβ transactivation (Gal4-RARβ; 10^-6 M): 51%
HRL+N transactivation (in words) [4]: bring about a transactivation greater than RAR selective agonists (TTNPB)
Emax [4, 8]: 131%
RAR-ERcassette profile (in words) [1]: induce a transactivation mediated by the three receptors
RAR/RXR activity profile (in words) (RAR and RXR receptors): panagonistic
activity at 100 µM [2, 5]: 55.8%
activity at 1 µM [2, 6]: 98.3%
activity at 0.01 µM [2, 7]: 122%
GAL4-RAR RARγ transactivation (Gal4-RARγ; 10^-6 M): 99%
activity at 100 µM [3, 9]: 109%
activity at 1 µM [3, 10]: 105%
activity at 0.01 µM [3, 11]: 126%

C/C(=C\c1cc2c(cc1C)C(C)(C)CCC2(C)C)c1ccc(C(=O)O)cc1 [CB71802]
activity at 100 µM [2, 5]: 7.8%
activity at 1 µM [2, 6]: 96%
activity at 0.01 µM [2, 7]: 101%
activity at 100 µM [3, 9]: 12.5%
activity at 1 µM [3, 10]: 86.3%
activity at 0.01 µM [3, 11]: 80.9%
effect on cellular increase, A549 (in words) [3]: inhibits the increase of these two pulmonary lineages the most strongly

C/C(=C\c1ccc2c(c1)C(C)(C)CCC2(C)C)c1ccc(C(=O)Nc2nnn[nH]2)cc1 [CB73364]
activity at 100 µM [2, 5]: 0%
activity at 1 µM [2, 6]: 101%
activity at 0.01 µM [2, 7]: 119%
activity at 100 µM [3, 9]: 0%
activity at 1 µM [3, 10]: 151%
activity at 0.01 µM [3, 11]: 156%
effect on cellular increase, A549 (in words) [3]: a stimulation of the cellular increase

Cc1cc2c(cc1C(=O)c1ccc(C(=O)O)cc1)C(C)(C)CCC2(C)C [LGD-CB14499, reference compound]
GAL4-RAR RARβ transactivation (Gal4-RARβ; 10^-6 M): 9%
GAL4-RAR RARβ transactivation (Gal4-RARβ; 10^-7 M): 1%
GAL4-RAR RARβ transactivation (Gal4-RARβ; 10^-8 M): 0%
HRL+N transactivation (in words) [4]: induce a stronger transactivation with the HRL+N cells
RAR-ERcassette profile (in words) [1]: transcriptional power appears higher notably through the RARβ-ERcassette
activity at 0.01 µM ([2]; ZR-75-1, 72 h): 107%
activity at 1 µM ([2]; ZR-75-1, 72 h): 104%
activity at 100 µM ([2]; ZR-75-1, 72 h): 42.4%
GAL4-RAR RARγ transactivation (Gal4-RARγ; 10^-6 M): 13%
GAL4-RAR RARγ transactivation (Gal4-RARγ; 10^-7 M): 0%
GAL4-RAR RARγ transactivation (Gal4-RARγ; 10^-8 M): 0%

From patent US6265423A, “Aromatic polycyclic retinoid-type derivatives, method for preparing same, and use thereof for making pharmaceutical and cosmetic compositions” (priority 1996, dated 2001)
